Test results as given in patent US20070037785A1, “Novel dipeptidyl peptidase IV inhibitors used for functionally influencing different cells and treating immunological, infammatory, neuronal, and other diseases” (priority 2003, published 2007).

Target: dipeptidyl peptidase IV (Homo sapiens, UniProt P27487)
Test: biochemical
Conditions: values marked with "*" are ID50 values; read-out: IC50DPIV, values marked with "*" = ID50

Chain of dipeptidyl peptidase IV (P27487 whole entry, species assumed): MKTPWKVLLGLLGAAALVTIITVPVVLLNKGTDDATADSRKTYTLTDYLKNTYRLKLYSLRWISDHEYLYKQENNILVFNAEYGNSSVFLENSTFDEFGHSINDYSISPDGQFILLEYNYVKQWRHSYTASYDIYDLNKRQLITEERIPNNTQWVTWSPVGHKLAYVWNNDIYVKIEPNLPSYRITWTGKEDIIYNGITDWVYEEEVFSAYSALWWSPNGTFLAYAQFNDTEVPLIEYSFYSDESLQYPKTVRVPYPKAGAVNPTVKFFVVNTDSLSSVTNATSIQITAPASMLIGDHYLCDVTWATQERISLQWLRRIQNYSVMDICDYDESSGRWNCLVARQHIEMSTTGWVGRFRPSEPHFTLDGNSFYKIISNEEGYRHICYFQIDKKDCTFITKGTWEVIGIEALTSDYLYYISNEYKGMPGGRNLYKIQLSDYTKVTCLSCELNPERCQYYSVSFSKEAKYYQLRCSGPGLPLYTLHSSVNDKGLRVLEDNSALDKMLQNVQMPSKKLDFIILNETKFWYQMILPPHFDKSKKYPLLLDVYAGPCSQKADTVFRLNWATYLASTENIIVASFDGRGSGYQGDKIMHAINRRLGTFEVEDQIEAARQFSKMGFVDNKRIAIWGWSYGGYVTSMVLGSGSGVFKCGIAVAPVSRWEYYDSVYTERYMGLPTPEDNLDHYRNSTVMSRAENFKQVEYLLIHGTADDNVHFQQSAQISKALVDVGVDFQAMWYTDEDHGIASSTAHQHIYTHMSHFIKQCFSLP

SMILES | IC50 [µM]
O=C(Nc1cccc(/N=C/c2cc(/N=N\c3ccccc3Cl)ccc2O)c1)c1ccco1 [D11.001] | 2.5
CC1=C(C(=O)Nc2ccccc2)C(c2ccccc2Cl)c2c(sc(C(=O)c3ccc(Cl)cc3)c2N)N1 (centres unmarked) [D3.093] | 112
O=C(CCCOc1ccc(Cl)cc1Cl)N/N=C1/C(=O)Nc2ccc(Br)cc21 [D10.121] | 204
O=C(N/N=C/c1ccccc1O)c1cc(-c2ccc3ccccc3c2)n[nH]1 [D10.130] | 255
N#C/C(=C\c1ccc(N2Cc3ccccc3C2)cc1)C(=O)NCc1ccco1 [D4.118] | 456
O=C(N/N=C/c1cc(Br)ccc1OC(=O)c1ccc([N+](=O)[O-])cc1)/C(=C\c1ccc2c(c1)OCO2)NC(=O)c1ccccc1 [D3.109] | 272
O=C(N/N=C/c1cccc([N+](=O)[O-])c1)c1ccc(NCc2ccccc2)cc1 [D10.126] | 234
CCOC(=O)c1c(CNC(=O)CN2CCN(c3nc4c([nH]3)c(=O)[nH]c(=O)n4C)CC2)[nH]c2ccc(F)cc12 [D5.043] | 69.8
COc1ccc(N(C(C)C(=O)N/N=C/c2ccc(Cl)cc2Cl)S(C)(=O)=O)cc1 (centres unmarked) [D10.003] | 2.9
Cn1c(=O)c2c(nc(NCC(O)CO)n2Cc2ccccc2Cl)n(C)c1=O (centres unmarked) [D12.040] | 83.3
O=C(c1cc(C(=O)N2CCOCC2)cc([N+](=O)[O-])c1)N1CCOCC1 [D5.009] | 10.7

Second part, the compound after the results:

IC50 [µM] | SMILES
257 | Cc1ccc(OCC(=O)N/N=C/c2ccccc2OC(=O)c2ccc([N+](=O)[O-])cc2)cc1 [D10.131]
314 | Nc1nonc1-n1nnc(C(=O)N/N=C/c2ccccc2Br)c1-c1ccc([N+](=O)[O-])cc1 [D10.135]
432 | COc1ccc(S(=O)(=O)N(CC(=O)N/N=C/c2ccc(C(C)C)cc2)c2cc(Cl)ccc2OC)cc1OC [D10.139]
224 | COc1ccc2nc(NC(=O)COC(=O)CN3C(=O)c4ccccc4C3=O)sc2c1 [D3.103]
172 | CC(C)c1ccc(N2CC(C(=O)Nc3ccc(Br)cc3Br)CC2=O)cc1 (centres unmarked) [D4.096]
91 | COc1cc(/C=N/NC(=O)c2ccc(NC(=O)c3ccccc3C)cc2)cc(OC)c1OC [D10.100]

Same assay, conditions: values without "*" = IC-50; read-out: IC50DPIV

SMILES | IC50 [µM]
CCOCCCNc1ccc(N2C(=O)CCCC2=O)cc1[N+](=O)[O-] [D4.048] | 36.8
COc1cc(N2C(=O)CSCC2=O)c(Cl)cc1Cl [D4.047] | 35.3
COc1ccc(OCC(=O)N/N=C/c2c(Br)cc(Br)c(O)c2Br)cc1 [D10.109] | 113
CCSc1nnc2n(-c3ccc(OC)cc3)c(=O)c3c4c(sc3n12)CCCC4 [D6.031] | 20.2
CC1=C(C#N)C(=O)N=C(O)/C1=C\c1ccc(-c2ccc(Cl)cc2Cl)o1 [D6.101] | 95.8
CCOC(=O)c1cn(-c2ccc(N3C(=O)CSCC3=O)cc2)nc1C [D6.056] | 37.4
CC(=O)N(C(C)=O)c1nc(-c2ccccc2)cn1/N=C/c1ccccc1 [D10.011] | 9.9
CCOC(=O)c1n[nH]c2c1CN(c1ccc([N+](=O)[O-])cc1)C2=O [D12.031] | 54.5
Cc1ccc2nc(-c3ccc(N4C(=O)CC(N5CCC(C)CC5)C4=O)cc3)sc2c1 (centres unmarked) [D3.094] | 116
CN(/N=C/c1sc(=O)[nH]c1Cl)c1ccccc1 [D10.057] | 32.4
CC1=C(C#N)C(=O)N(CCc2ccccc2)C(=O)/C1=C/c1ccc(-c2ccc(S(N)(=O)=O)cc2)o1 [D4.057] | 48.2
O=C1CSCC(=O)N1c1ccc(F)cc1 [D4.086] | 94.5
COC(=O)C1=C(N)N2C(=O)CSC2=C(C(=O)OC)C1 [D3.008] | 34.1
CCOc1ccc(/C=N/NC(=O)c2cc(-c3c(OC)ccc4ccccc34)n[nH]2)cc1 [D10.083] | 56.3
O=C1CCCC(=O)N1c1ccc(NCCc2ccc(O)cc2)c([N+](=O)[O-])c1 [D4.064] | 54.9
COc1ccc(/C=N/N=C2\NC(=O)C(Cc3cccc(C(F)(F)F)c3)S2)cc1 (centres unmarked) [D10.058] | 34.2
O=C(N/N=C/c1ccc(-c2ccc(Cl)cc2)o1)/C(=C/c1ccc([N+](=O)[O-])cc1)NC(=O)c1ccccc1 [D10.026] | 16.4
COc1cc2c(cc1OC)C1(CCCC1)CN(CC#N)C2 [D3.039] | 31.4
O=C(CCCCC(=O)N/N=C/c1ccccc1[N+](=O)[O-])N/N=C/c1ccccc1[N+](=O)[O-] [D10.020] | 12.8
CC1=C(C#N)C(=O)N(CCCO)C(=O)/C1=C\c1ccc(-c2cc(C)c(C)cc2[N+](=O)[O-])o1 [D6.055] | 34.8
Cc1ccc(OCC(=O)N/N=C\c2ccc(O)c([N+](=O)[O-])c2)c([N+](=O)[O-])c1 [D10.030] | 17.8

SMILES | IC50 [µM]
COc1ccc(Cl)cc1N1C(=O)CSCC1=O [D4.041] | 30.7
CC(=O)Oc1cc2oc(=O)cc(C)c2cc1OC(C)=O [D3.078] | 59.2
CCN(CC)C(=O)C1CCCN(c2ccc([N+](=O)[O-])cc2/C=N/NC(=O)c2cccc([N+](=O)[O-])c2)C1 (centres unmarked) [D10.075] | 54
Cc1ccc(C(=O)N/C(=C/c2ccco2)C(=O)N(C)C)cc1 [D12.038] | 47.7
CCCOC(=O)c1cc(-c2ccc(/C=C3/C(=O)N(CC(C)O)C(=O)C(C#N)=C3C)o2)ccc1Cl (centres unmarked) [D4.083] | 82.2
Cc1ccc(/C=N/NC(=O)c2cccc(I)c2)o1 [D10.085] | 57.7
C=CCOC(=O)c1cc(-c2ccc(/C=C3/C(=O)N(CCCO)C(=O)C(C#N)=C3C)o2)ccc1Cl [D4.054] | 44.6
CCCCOC(=O)c1cc(-c2ccc(/C=C3/C(=O)N(CC(C)O)C(=O)C(C#N)=C3C)o2)ccc1Cl (centres unmarked) [D6.070] | 49
CC1CCc2c(sc(NC(=O)C(C(F)(F)F)C(F)(F)F)c2C#N)C1 (centres unmarked) [D3.080] | 59.8
O=C(Nc1cccc(/N=C/c2cc(I)cc(I)c2O)c1)c1ccco1 [D11.002] | 9.2
CCOC(=O)C1=C2SCC(=O)N2C(N)=C(C#N)C1 [D3.009] | 14.1
Cc1[nH]c2ccccc2c1C(c1cc(Cl)ccc1O)N1CCOCC1 (centres unmarked) [D5.007] | 12.1
CCN(CC)C(=O)C1CCCN(c2ccc([N+](=O)[O-])cc2/C=N/NC(=O)c2cccc([N+](=O)[O-])c2)C1 (centres unmarked) [D5.036] | 54
CN(C)CCNc1nc2c(c(=O)n(C)c(=O)n2C)n1Cc1ccccc1Cl [D6.006] | 7.5
O=C1c2ccccc2C(=O)N1c1cccc(-c2csc(N3N=C(c4cccc([N+](=O)[O-])c4)CC3c3ccc(F)cc3)n2)c1 (centres unmarked) [D3.050] | 39.8
CCOC(=O)c1cc(-c2ccc(/C=C3/C(=O)NC(=O)C(C#N)=C3C)o2)ccc1Cl [D6.082] | 56.7
CCSc1nnc2n(-c3ccc(OC)cc3)c(=O)c3c4c(sc3n12)CCCC4 [D3.013] | 10.8
CCc1c(C)[nH]c2c1/C(=N\OC(=O)C(C)C)CCC2 [D6.062] | 43.8
Cc1cc([N+](=O)[O-])c(C)cc1-c1ccc(/C=C/c2cc(C(F)(F)F)nc(=O)[nH]2)o1 [D6.034] | 20.6
CCOc1ccc(/C=N/NC(=O)c2cc(-c3c(OC)ccc4ccccc34)n[nH]2)cc1 [D3.100] | 56.3
CCOc1cc(/C=N/NC(=O)c2cc(C)n[nH]2)ccc1O [D10.023] | 13.6

More lines, now with the values ahead:

IC50 [µM] | SMILES
93.3 | O=C(CNC(=O)C(c1ccccc1)c1ccccc1)N/N=C/c1ccc(OC(=O)c2cccc(F)c2)cc1 [D10.103]
7.5 | Cc1ccc(C2N(CC(C)C)CC(C(=O)c3c(C)cccc3C)N2CCCN2CCCC2=O)cc1 (centres unmarked) [D6.008]
20.9 | Cc1ccccc1C(=O)N/N=C/c1ccc([N+](=O)[O-])o1 [D6.036]
99.4 | COc1ccc(OCC(=O)N/N=C/c2c(Br)cc(Br)c(O)c2Br)c(Br)c1 [D10.105]
19.2 | COc1ccc(N2CCN(c3nc4c(c(=O)[nH]c(=O)n4C)n3Cc3ccccc3)CC2)cc1 [D5.020]
46 | Cc1nc2c(sc(=S)n2C)c(=O)[nH]1 [D3.061]
29.8 | C/C(=N\NC(=O)c1cc(C)n[nH]1)c1ccc(-c2ccccc2)cc1 [D10.047]
55.3 | CCOc1cccc(/C=N/NC(=O)c2cc(-c3ccc(F)cc3)n[nH]2)c1O [D10.078]
16.7 | CCOc1cc(/C=N\NC(=O)c2cnccn2)ccc1O [D10.027]
33.9 | CN(C)c1ccc(/C=C(\NC(=O)c2ccccc2)C(=O)N/N=C/c2cc(/N=N/c3ccccc3)ccc2O)cc1 [D10.051]
38.1 | Cc1ccccc1NC(=O)CSC1=NCCN1 [D6.057]
11.4 | O=C(COc1cccc(Br)c1)N/N=C/c1cc(O)c(O)c(Br)c1Br [D10.014]
13.2 | Cc1cccc(C(=O)Oc2c(Br)cc(Br)cc2/C=N/NC(=O)CNC(=O)c2ccc(Cl)cc2)c1 [D10.021]
18.2 | CC(=O)Oc1cccc(N2C(=O)c3ccc(C(=O)NCc4ccc(C(=O)O)cc4)cc3C2=O)c1 [D4.023]
34.1 | O=C1NCCCCC1Nc1ccc(N2C(=O)CCCC2=O)cc1[N+](=O)[O-] (centres unmarked) [D5.026]
13.5 | CCOC(=O)CN(Cc1ccccc1)c1ccc(N2C(=O)CCCC2=O)cc1[N+](=O)[O-] [D4.017]
42.4 | O=C(/C=C/c1ccco1)Nc1ccc2oc(-c3cccc(Cl)c3Cl)nc2c1 [D3.055]
66.6 | O=C1C(N2CCOCC2)=C(Cl)/C(=N/S(=O)(=O)c2ccc(Cl)cc2)C(Cl)(Cl)C1(Cl)Cl [D4.075]
41.2 | CN1CCN(c2nc3c(c(=O)n(C)c(=O)n3C)n2Cc2cccc(F)c2)CC1 [D3.054]
46.4 | CC(C)c1ccc2c(c1)[C@@H]1C=CC[C@@H]1[C@H](c1ccc(C(=O)O)cc1)N2 [D3.062]
80.6 | CSc1nc2sc3c(c2c(=O)n1-c1cccc(C)c1)CC(C)(C)OC3 [D3.088]
46.2 | COc1cc(/C=N/NC(=O)/C(=C/c2ccc(N(C)C)cc2)NC(=O)c2ccccc2)cc(Br)c1O [D10.070]
46.5 | Cc1ccc(C(=O)N/C(=C\c2ccco2)C(C)N2CCOCC2)cc1C (centres unmarked) [D6.067]
20.5 | CC(/C=N/NC(=O)CNc1ccc(C)cc1)=C\c1ccc(/C=C(C)/C=N/NC(=O)CNc2ccc(C)cc2)cc1 [D10.038]
91.3 | COc1ccc(OCC(=O)N/N=C\C(C)=C/c2ccc(/C=C(C)\C=N/NC(=O)COc3ccc(OC)cc3Br)cc2)c(Br)c1 [D10.101]
115 | COC(=O)c1ccc(NC(=O)/C(=C\c2cccc([N+](=O)[O-])c2)NC(=O)c2ccc(Br)o2)cc1 [D6.108]
55.4 | COc1c(O)ccc(/C=N/NC(=O)COc2c(Br)cc(Br)cc2Br)c1[N+](=O)[O-] [D10.079]
